In PubChem BioAssay (NCI):
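1) Cells in 96-well plates. 2) Compound, 48 h, 5 concentrations. 3) Linear interpolation between surrounding doses. 4) Unreached endpoint = highest concentration. Here, GI50 denotes the concentration required for 50% inhibition of growth. Definition used: TGI = concentration required for complete inhibition of growth.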

How the values were obtained:
Assay in all cases: DTP human tumour cell line panel, 48 h
OVCAR-5 ovarian = system: OVCAR-5 ovarian
ACHN renal = system: ACHN renal
SK-OV-3 ovarian = system: SK-OV-3 ovarian
HCT-116 colon = system: HCT-116 colon
NCI-H226 lung = system: NCI-H226 lung
SNB-75 CNS = system: SNB-75 CNS
A549 NSCLC = system: A549 NSCLC
HCT-15 colon = system: HCT-15 colon
SF-295 CNS = system: SF-295 CNS
HOP-62 NSCLC = system: HOP-62 NSCLC

| Compound | TGI (OVCAR-5 ovarian) | TGI (ACHN renal) | TGI (SK-OV-3 ovarian) | TGI (HCT-116 colon) | TGI (NCI-H226 lung) | TGI (SNB-75 CNS) | TGI (A549 NSCLC) | TGI (HCT-15 colon) | TGI (SF-295 CNS) | TGI (HOP-62 NSCLC) | GI50 (OVCAR-5 ovarian) | GI50 (ACHN renal) | GI50 (SK-OV-3 ovarian) | GI50 (HCT-116 colon) | GI50 (NCI-H226 lung) | GI50 (SNB-75 CNS) | GI50 (SF-295 CNS) | GI50 (HOP-62 NSCLC) | GI50 (HCT-15 colon) | GI50 (A549 NSCLC) |
| --- | --- | --- | --- | --- | --- | --- | --- | --- | --- | --- | --- | --- | --- | --- | --- | --- | --- | --- | --- | --- |
| O=S1(=O)CS(=O)(=O)OCCCCCO1 | > 100 µM | > 100 µM | > 100 µM | > 100 µM | > 100 µM | > 100 µM | > 100 µM | > 100 µM |  |  |  |  |  |  |  |  |  |  |  |  |
| Cc1cccc(NC(=O)CSc2nnc(-c3ccc(N=Cc4ccc(Cl)cc4)cc3)o2)c1 |  | > 100 µM | > 100 µM | > 100 µM | > 100 µM | > 100 µM | > 100 µM | > 100 µM | > 100 µM | > 100 µM |  |  |  |  |  |  |  |  |  |  |
| NC(=O)C1C(=O)Oc2cccnc21 (stereo not drawn) |  | > 100 µM | > 100 µM | > 100 µM | > 100 µM | > 100 µM | > 100 µM | > 100 µM | > 100 µM | > 100 µM |  |  |  |  |  |  |  |  |  |  |
| COc1cc([C@H]2c3cc4c(cc3[C@H](NCc3ccc(F)cc3)C3COC(=O)[C@H]32)OCO4)cc(OC)c1O (stereo partly drawn) | 30.9 µM | 4.34 µM | 9.78 µM | 23.1 µM | 7.61 µM | 9.16 µM |  | 16.2 µM | 17.9 µM | 3.82 µM |  |  |  |  |  |  |  |  |  |  |
| COc1ccc(/C(C#N)=C2/O/C(=N/N)C(c3ccc(OC)c(OC)c3)C2=O)cc1OC (stereo not drawn) |  | > 100 µM | > 100 µM | > 100 µM | > 100 µM | > 100 µM | > 100 µM | > 100 µM | > 100 µM |  |  |  |  |  |  |  |  |  |  |  |
| Cc1c(C(=O)/C=C/c2ccc3c(c2)OCO3)[n+](=O)c2ccccc2n1[O-] | 74.3 µM | > 100 µM | 51.2 µM | 75.1 µM | 60.9 µM | 68.6 µM | > 100 µM |  | 95.7 µM | > 100 µM |  |  |  |  |  |  |  |  |  |  |
| COc1ccc(C2NC(c3ccc(OC)cc3)C(C)C(=O)C2C)cc1 (stereo not drawn) | 97.2 µM | > 100 µM | > 100 µM | > 100 µM |  | > 100 µM |  | > 100 µM | > 100 µM | > 100 µM |  |  |  |  |  |  |  |  |  |  |
| c1ccc(-c2nc3ccccc3[nH]2)c(OCCCCCOc2ccccc2-c2nc3ccccc3[nH]2)c1 | 62.6 µM | 26.9 µM | 34 µM | 3.24 µM | 47.4 µM | 47.4 µM |  | 18.4 µM | 41.2 µM | 52.5 µM | 20.2 µM | 13.1 µM | 14.2 µM | 1.64 µM | 20 µM | 8.78 µM | 15.3 µM | 22.1 µM | 4.64 µM |  |
| CCOC(=O)C(=O)Nc1nc2ccc(OC)cc2s1 | > 100 µM | > 100 µM | > 100 µM |  | > 100 µM | > 100 µM | > 100 µM | > 100 µM | > 100 µM | > 100 µM |  |  |  |  |  |  |  |  |  |  |
| CN(C)CCC(/C=C/c1ccccc1)=N\Nc1c(F)c(F)c(F)c(F)c1F | > 100 µM | > 100 µM | > 100 µM | > 100 µM |  | > 100 µM | > 100 µM | > 100 µM | > 100 µM | > 100 µM |  |  |  |  |  |  |  |  |  |  |
| Clc1cc(Cl)cc(Nc2ccc3c(OCCCN4CCOCC4)cccc3n2)c1 | 4.37 µM | 10.3 µM | 8.55 µM | 3.56 µM | 10.7 µM |  | 6.87 µM | 3.52 µM | 4.06 µM | 7.03 µM | 1.83 µM | 3.02 µM | 2.78 µM | 1.82 µM | 3.17 µM |  | 1.92 µM | 2.29 µM | 1.75 µM | 2.6 µM |
| CN(C)CC(=O)N1CCc2c([nH]c3ccccc23)C1c1cccnc1 (stereo not drawn) | > 100 µM | > 100 µM | > 100 µM | > 100 µM | > 100 µM | > 100 µM | > 100 µM | > 100 µM |  | > 100 µM |  |  |  |  | > 100 µM |  |  |  |  |  |
| CCOc1ccc(N=Nc2c(-c3ccccc3)nn(C(=O)CC(=O)Nc3ccccc3Cl)c2-c2ccccc2)cc1 | > 100 µM | > 100 µM | > 100 µM | > 100 µM | > 100 µM | 90.6 µM | > 100 µM |  | > 100 µM | > 100 µM |  |  |  |  |  |  |  |  |  |  |
| COc1ccc(N=C2C(=O)Nc3ccc(Br)cc32)cc1 | 58 µM | 38.6 µM | 75.3 µM | 35.2 µM | 35.5 µM |  | > 100 µM | 44 µM | > 100 µM | 88.4 µM |  |  |  |  |  |  |  |  |  |  |
| O=C(Cn1ccnc1[N+](=O)[O-])NCc1ccc(F)cc1 | > 100 µM | > 100 µM | > 100 µM |  | > 100 µM | > 100 µM | > 100 µM | > 100 µM | > 100 µM | > 100 µM |  |  |  |  |  |  |  |  |  |  |
| CC(C)(C)OC(=O)CC(S(=O)(=O)c1ccccc1)S(=O)(=O)c1ccccc1 | 32.7 µM | 3.19 µM |  | 2.78 µM | 22.7 µM | 31.1 µM | 38.9 µM | 3.71 µM | > 100 µM | 35.4 µM | 17.4 µM | 1.75 µM |  | 1.46 µM | 4.84 µM | 14.2 µM | > 100 µM | 19.1 µM | 1.87 µM | 18.3 µM |
| CN(C)CN(C)c1nc(N(C)C)nc(N(C)C)n1 | > 100 µM | > 100 µM | > 100 µM | > 100 µM |  | > 100 µM | > 100 µM | > 100 µM | > 100 µM | > 100 µM |  |  |  |  |  |  |  |  |  |  |
| CC1(C)O[C@@H](CCl)C[C@@H](C#N)O1 | > 100 µM | > 100 µM | > 100 µM | > 100 µM | > 100 µM | > 100 µM | > 100 µM |  | > 100 µM | > 100 µM |  |  |  |  |  |  |  |  |  |  |
| CC[C@]1(O)C[C@@H]2CN(CCc3c([nH]c4ccccc34)[C@@](C(=O)OC)(c3cc4c(cc3OC)N(C)[C@H]3[C@@](O)(C(=O)OC)[C@H](OC(=O)CCCBr)[C@]5(CC)C=CCN6CC[C@]43[C@@H]65)C2)C1 | > 100 µM | > 100 µM | > 22.2 µM | > 32.4 µM | 99.7 µM | < 0.01 µM | > 100 µM | > 100 µM |  | > 100 µM | < 0.023 µM | 0.108 µM | 0.306 µM | < 0.01 µM | 5.87 µM | < 0.01 µM |  | 0.0386 µM | 0.12 µM | < 0.0166 µM |
| O=C(CC/C(CC(=O)c1ccc(Cl)cc1)=N\O)Nc1cccc(Cl)c1 | > 100 µM | > 100 µM | > 100 µM |  |  | > 100 µM | > 100 µM | > 100 µM | > 100 µM | > 100 µM |  |  |  |  |  |  |  |  |  |  |
